The values below are quoted from earlier work in article PMC5559489 (Scientific Reports, 2017).

For data set [1], the system named is A(H1N1)pdm2009 clinical isolates with H275Y mutation. Particulars: cited from earlier work.
Data set [2] concerns A(H1N1)pdm09 isolates containing NA H275Y and I223R. To be noted: cited from earlier work.

The structures appear in SMILES notation.

As to `CCOC(=O)C1=C[C@@H](OC(CC)CC)[C@H](NC(C)=O)[C@@H](N)C1` [oseltamivir, Oseltamivir], the “decrease of sensitivity compared to wild-type” value in data set [1] is listed as 1466 fold. Moreover, the “decreased susceptibility to oseltamivir” value in data set [2] was 246 fold.
